From patent US10738041B2, “Ferroportin inhibitors” (Vifor (International) AG, priority 2015, dated 2020)

Experiments:
human Fpn = target: T1, human Fpn (Homo sapiens, UniProt Q9NP59); assay: Biophysical Ferroportin-Hepcidin Binding Assay (fluorescence polarization); conditions: average of multiple measurements; 1 μM human Fpn, 20 nM TMR-hepcidin; read-out: FP IC50
T1 construct: FLAG (C); made in house; host or cells: Pichia pastoris
T1 sequence (Q9NP59 1-571): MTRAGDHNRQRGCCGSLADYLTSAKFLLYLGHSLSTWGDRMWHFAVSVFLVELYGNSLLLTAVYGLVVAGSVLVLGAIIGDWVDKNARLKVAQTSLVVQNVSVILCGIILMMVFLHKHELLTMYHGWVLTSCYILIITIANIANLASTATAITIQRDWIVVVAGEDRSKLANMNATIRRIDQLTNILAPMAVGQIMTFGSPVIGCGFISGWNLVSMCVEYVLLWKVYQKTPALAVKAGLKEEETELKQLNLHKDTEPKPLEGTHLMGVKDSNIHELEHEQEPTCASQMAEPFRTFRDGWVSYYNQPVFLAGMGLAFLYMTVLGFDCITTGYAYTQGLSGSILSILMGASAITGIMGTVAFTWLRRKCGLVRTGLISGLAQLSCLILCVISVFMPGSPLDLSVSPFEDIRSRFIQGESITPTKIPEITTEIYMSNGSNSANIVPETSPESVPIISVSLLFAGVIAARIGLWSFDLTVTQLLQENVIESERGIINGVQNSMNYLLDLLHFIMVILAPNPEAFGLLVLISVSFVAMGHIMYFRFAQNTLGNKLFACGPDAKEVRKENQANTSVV
Protocol: This biophysical assay was developed to confirm inhibition of hepcidin binding to ferroportin (Fpn) more directly. Incubation of TMR-hepcidin with purified human Fpn isolated from Pichia pastoris yeast cells expressing human Fpn with a C-terminal FLAG affinity tag (Bonaccorsi di Patti, 2014) leads to increased fluorescence polarization (FP) of the TMR-hepcidin ligand. Small molecular weight Fpn inhibitors were tested for inhibition of binding of TMR-hepcidin to Fpn, as detected by dose-dependent decrease of the TMR FP signal, as described in detail below.
8 μl of serial dilutions of test compounds were added in duplicates to reach final Fpn and TMR-hepcidin concentrations of 1 μM and 20 nM, respectively. Plates were incubated for 90 minutes at room temperature and parallel (S) and perpendicular (P) fluorescence was measured in a Synergy H1 fluorescence reader (BioTek). FP values were calculated in mP according to the following formula.

ferroportin (Fpn) = target: T2, ferroportin (Fpn) (Mus musculus, UniProt Q9JHI9); assay: Hepcidin Internalization Assay (J774); format: cell-based; conditions: average of multiple measurements; inhibition of TMR-hepcidin (25 nM) internalization into J774 cells; read-out: J774 IC50
T2 construct: host or cells: J774 mouse macrophage cell line, Fe(III)-NTA induced
T2 sequence (Q9JHI9 1-570): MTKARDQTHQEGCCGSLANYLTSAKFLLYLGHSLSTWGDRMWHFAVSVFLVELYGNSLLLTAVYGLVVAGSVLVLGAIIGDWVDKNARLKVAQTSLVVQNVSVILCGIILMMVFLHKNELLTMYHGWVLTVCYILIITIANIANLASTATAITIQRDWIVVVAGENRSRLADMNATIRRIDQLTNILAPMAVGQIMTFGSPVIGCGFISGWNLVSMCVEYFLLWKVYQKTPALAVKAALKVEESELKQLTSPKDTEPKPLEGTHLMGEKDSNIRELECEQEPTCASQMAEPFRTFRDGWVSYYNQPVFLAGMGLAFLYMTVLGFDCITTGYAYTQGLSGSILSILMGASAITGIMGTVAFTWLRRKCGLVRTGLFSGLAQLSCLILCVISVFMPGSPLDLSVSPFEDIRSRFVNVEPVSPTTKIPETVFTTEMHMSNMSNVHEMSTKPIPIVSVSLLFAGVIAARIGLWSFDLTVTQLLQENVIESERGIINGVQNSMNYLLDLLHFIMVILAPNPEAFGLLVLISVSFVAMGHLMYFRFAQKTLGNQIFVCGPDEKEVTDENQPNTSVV
Method in brief: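 Inhibition of fluorescent TMR-hepcidin uptake via ferroportin was imaged in fixed J774 cells after a 2 h, 37 °C co-incubation with compound dilutions; cells were pre-cultured overnight with 200 μM Fe(III)NTA. Internalized TMR signal per cell (Sum(Mean)) was fitted as log(inhibitor) vs. response for IC50, in triplicate.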

human Fpn-GFP fusion = target: T3, human Fpn-GFP fusion (Homo sapiens, UniProt Q9NP59); assay: Inhibition of ferroportin mediated iron export activity in an iron response assay (BLAzer); format: cell-based; conditions: average of multiple measurements; HEK-293 cell line #354; read-out: BLAzer EC50
T3 construct: expressed in transfected cells; host or cells: HEK-293 cell line #354 (derivative of HEK-293 Tet-ON Advanced, Clontech)
T3 sequence (Q9NP59 1-571): T1 sequence (Q9NP59 1-571)
Description: Intracellular iron levels are indirectly measured in this assay by monitoring the activity of a beta-lactamase (BLA) reporter gene fused to the human ferritin promoter and the associated iron regulatory element (IRE) contained within the 5′ untranslated region of the ferritin mRNA. Expression of ferroportin (Fpn) in such a cell line leads to iron efflux and lower iron levels as reflected by lower activity of the reporter gene. On the other hand, inhibition of Fpn-mediated iron efflux results in elevated cellular iron levels which is detected as increased reporter gene activity. Small molecular weight Fpn inhibitor compounds were tested for dose-dependent effects in this in vitro iron response assay as described below.
The HEK-293 cell line #354 was generated by stable integration of (i) a human Fpn-GFP fusion construct inserted in a derivative of the doxycycline-inducible pTRE-Tight-BI plasmid (Clontech, Cat. 631068) and (ii) a human ferritin promoter-BLA reporter gene into a derivative of the HEK-293 Tet-ON Advanced cell line (Clontech). […] After overnight incubation, 10 μl/well of dilution series of the test compounds were added in quadruplicates and plates were further incubated overnight at 37° C. with 5% CQ. Cells were washed 3 times with HBSS leaving 25 μl per well. BLA activity was detected by adding 5 μl/well of the GeneBlazer reagent CCF4-AM (Invitrogen, Cat. K1085) to the cells. After incubation of the plates in the dark at 18° C. for 60 min., blue and green fluorescence signals were measured in a Safre2 fluorescence plate reader (Tecan) with excitation at 410 nm and emissions at 458 nm (blue) and 522 nm (green). The ratio of blue/green fluorescence as a measure for BLA activity was calculated and EC50 values were determined with the calculated blue/green fluorescence ratios as described for the hepcidin internalization assay.

| Compound | IC50 (human Fpn) | IC50 (ferroportin (Fpn)) | EC50 (human Fpn-GFP fusion) |
| --- | --- | --- | --- |
| Cn1ccnc1CNCCc1nc(C(=O)NCc2ccccc2)cs1 [Example 2] | 10.6 µM | 6.3 µM | 1.64 µM |
| O=C(NCC1CCCCC1)c1csc(CCNCc2nc3ccccc3[nH]2)n1 [Example 13] | 0.53 µM | 1.7 µM | 27 µM |
| O=C(c1csc(CCNCc2nc3ccccc3[nH]2)n1)N1CCc2ccccc2C1 [Example 15] | 1.47 µM | 1.6 µM | 2.22 µM |
| O=C(NCc1ccccc1)c1csc(CCNCc2cc3ccccc3[nH]2)n1 [Example 24] | – | 2.8 µM | 12.8 µM |
| O=C(NCc1ccccc1)c1csc(CCNCCc2nc3ccccc3[nH]2)n1 [Example 29] | 0.136 µM | 0.51 µM | 2.53 µM |
| Cc1ccc2[nH]c(CNCCc3nc(C(=O)NCc4ccccc4)cs3)nc2c1 [Example 32] | 1.21 µM | 2.6 µM | 1.87 µM |
| O=C(NCc1ncccc1C(F)(F)F)c1csc(CCNCc2nc3ccccc3[nH]2)n1 [Example 37] | 1.9 µM | 0.81 µM | 7.92 µM |
| O=C(NC1CCCc2cccnc21)c1csc(CCNCc2nc3ccccc3[nH]2)n1 (stereo not drawn) [Example 38] | 0.233 µM | 0.03 µM | 2.98 µM |
| Cc1cccc(CNC(=O)c2csc(CCNCc3nc4ccccc4[nH]3)n2)n1 [Example 42] | 2.17 µM | 0.6 µM | 36.3 µM |
| O=C(NCc1ccc(F)cn1)c1csc(CCNCc2nc3ccccc3[nH]2)n1 [Example 43] | 1.52 µM | 0.25 µM | 30.9 µM |
| O=C(NCc1ccncn1)c1csc(CCNCc2nc3ccccc3[nH]2)n1 [Example 44] | 5.34 µM | 1.33 µM | 18.3 µM |
| O=C(NCc1cnccn1)c1csc(CCNCc2nc3ccccc3[nH]2)n1 [Example 46] | 4.34 µM | 0.59 µM | 38.7 µM |
| O=C(NCc1ccccc1)c1csc(CCNCc2nc3cc(C(F)(F)F)ccc3[nH]2)n1 [Example 51] | 0.53 µM | 0.36 µM | 4.47 µM |
| O=C(NCc1ccccc1)c1csc(CCNCc2nc3cc(Cl)ccc3[nH]2)n1 [Example 52] | 1.36 µM | 0.34 µM | 2.08 µM |
| N#Cc1ccc(CNC(=O)c2csc(CCNCc3nc4ccccc4[nH]3)n2)cn1 [Example 56] | 0.566 µM | 0.41 µM | 10.4 µM |
| Cc1cnc(CNC(=O)c2csc(CCNCc3nc4ccccc4[nH]3)n2)c(C)c1 [Example 57] | 0.43 µM | 0.1 µM | 2.11 µM |
| COc1cccnc1CNC(=O)c1csc(CCNCc2nc3ccccc3[nH]2)n1 [Example 59] | 0.27 µM | 0.05 µM | 1.38 µM |
| O=C(NCc1ncccn1)c1csc(CCNCc2nc3ccccc3[nH]2)n1 [Example 61] | 1.69 µM | 0.56 µM | 37.5 µM |
| Cn1ccnc1CNC(=O)c1csc(CCNCc2nc3ccccc3[nH]2)n1 [Example 64] | 1.24 µM | 0.13 µM | 4.53 µM |

| Compound | IC50 (human Fpn) | IC50 (ferroportin (Fpn)) | EC50 (human Fpn-GFP fusion) |
| --- | --- | --- | --- |
| O=C(NCc1ccccc1F)c1csc(CCNCc2nc3ccccc3[nH]2)n1 [Example 65] | 0.95 µM | 0.85 µM | 32.3 µM |
| O=C(NCc1ccccc1)c1cccc(CCNCc2nc3ccccc3[nH]2)c1 [Example 67] | 3.4 µM | 0.53 µM | 33.5 µM |
| CN1CCN(c2ccccc2CNC(=O)c2csc(CCNCc3nc4ccccc4[nH]3)n2)CC1 [Example 68] | 4.06 µM | 2.5 µM | 10.4 µM |
| N#Cc1ccccc1CNC(=O)c1csc(CCNCc2nc3ccccc3[nH]2)n1 [Example 71] | 0.508 µM | 0.24 µM | 1.79 µM |
| O=C(NCc1ccccc1S(=O)(=O)N1CCOCC1)c1csc(CCNCc2nc3ccccc3[nH]2)n1 [Example 75] | 1.83 µM | 0.53 µM | 6 µM |
| Cc1ccc(F)c(CNC(=O)c2csc(CCNCc3nc4ccccc4[nH]3)n2)n1 [Example 79] | 0.82 µM | 0.037 µM | 0.84 µM |
| Cn1cncc1CNC(=O)c1csc(CCNCc2nc3ccccc3[nH]2)n1 [Example 84] | 2.41 µM | 0.4 µM | 13.2 µM |
| O=C(NCc1ncco1)c1csc(CCNCc2nc3ccccc3[nH]2)n1 [Example 85] | 1.87 µM | 0.029 µM | 18.7 µM |
| Cn1ccc(CNC(=O)c2csc(CCNCc3nc4ccccc4[nH]3)n2)n1 [Example 86] | 4.96 µM | 0.48 µM | 22.3 µM |
| O=C(NCc1cccnn1)c1csc(CCNCc2nc3ccccc3[nH]2)n1 [Example 87] | 2.25 µM | 0.19 µM | 16.6 µM |
| Cn1nccc1CNC(=O)c1csc(CCNCc2nc3ccccc3[nH]2)n1 [Example 88] | 6.76 µM | 0.78 µM | 13.1 µM |
| O=C(NCc1ccncc1F)c1csc(CCNCc2nc3ccccc3[nH]2)n1 [Example 89] | 0.922 µM | 0.089 µM | 5.05 µM |
| Cc1ccc(CNC(=O)c2csc(CCNCc3nc4ccccc4[nH]3)n2)nn1 [Example 93] | 1.03 µM | 0.53 µM | 20.6 µM |
| Cc1ccc(CNC(=O)c2csc(CCNCc3nc4ccccc4[nH]3)n2)nc1 [Example 97] | 2.13 µM | 0.27 µM | 1.81 µM |
| Cc1cc(CNC(=O)c2csc(CCNCc3nc4ccccc4[nH]3)n2)ccn1 [Example 99] | 4.33 µM | 2.99 µM | 22.8 µM |
| Cc1c(CNC(=O)c2csc(CCNCc3nc4ccccc4[nH]3)n2)cnn1C [Example 100] | 1.42 µM | 0.46 µM | 6.56 µM |
| N#Cc1ccc2[nH]c(CCNCCc3nc(C(=O)NCc4ncccc4F)co3)nc2c1 [Example 265] | – | 0.07 µM | 2 µM |
| O=C(NCc1ncccc1F)c1cncc(CCNCCc2nc3ccccc3[nH]2)c1 [compound 229] | 0.043 µM | – | 4.06 µM |
